Assay results as given in patent publication US20080299186A1, “COATINGS FOR APPLYING SUBSTANCES ONTO SUBSTRATE CARRIER” (Schering-Plough Healthcare Products, Inc., priority 2007, published 2008).
Counter-ions that a name gives are not always drawn.

Test: Phenylephrine HCl stability study: chemical compatibility with film forming polymers and plasticizers, HPLC degradation products
Assay type: physicochemical
Experimental: Methods: Chemical compatibility of Phenylephrine HCl with various film forming polymers or polymer blends and plasticizers (Table 2) was conducted. […] Two additional formulations (C and F) were used as controls. Sample C contained Phenylephrine HCl dissolved in water without any additional cellulosic or non-cellulosic polymers. Sample F comprised phenylephrine HCl in the absence of water. Both controls were subjected to the same drying conditions as the other example films prior to analysis.
Aliquots from the bulk coating dispersion equivalent to approximately 10 unit doses of the active were poured into flat, 4-6″ plastic weight boats and allowed to dry overnight for approximately 15-16 hours at 40C under vacuum. The amount per film equivalent to 10 unit doses was chosen for achieving reproducible and reliable analytical results for the Phenylephrine HCl degradants. […] These dried film samples were then stored at 50C in closed amber jars for 14 days. Each film was then analyzed by HPLC for the presence of degradation products. Separation of Phenylephrine HCl degradation products was accomplished on an HPLC using a Prontosil EPS C18, 100×4.6 mm (3 μparticle size) column manufactured by Bischoff Chromatography and using a gradient test method. Detection was by UV at 215 nm. The column was thermostated at 25° C. and an injection volume of 10 μL of sample solution was used. […]

residual water after drying (after drying of the film sample)	total PE degradation, result in words (compared with controls) (stored at 50C in closed amber jars for 14 days)	Compound
10-15%	–	CNC[C@H](O)c1cccc(O)c1 [C, Phenylephrine HCl]
–	no appreciable degradation occurred	CNC[C@H](O)c1cccc(O)c1 [F, Phenylephrine HCl]
